{"source": "patent US20100204295A1", "about": "“TREATMENT OF ALLERGIC DISEASE WITH IMMUNOMODULATOR COMPOUNDS” (SCICLONE PHARMACEUTICALS, INC., priority 2007, published 2010)", "key": {"interleukin-4": {"tested_on": "interleukin-4", "assay": "ConA-induced IL-4 production by splenocytes after intra-abdominal SCV-07", "format": "in vivo, mice", "details": "1 μg/kg, five daily intra-abdominal injections; ConA 5 μg/mL", "experimental": "SCV-07 was administered to intact wild mice in the form of five daily intra-abdominal injections at dosages of 0.1 and 1.0 μg/kg of body weight. After this, isolation of spleen cells was carried out the cytokine synthesis was induced in the culture by stimulating the cells with concanavalin A at a dosage of 5 μg/mL. The levels of the synthesized cytokines were determined by quantitative immunoenzyme analysis. […] The changes on ConA-induced production of two other [sic] cytokines—IFN-γ and IL-4, as is apparent from FIG. 1, were reciprocal in nature."}, "[1]": {"tested_on": "experimental allergic asthma (BAL cells)", "assay": "Cytological composition of bronchoalveolar lavage in allergic ovalbumin asthma model", "format": "in vivo, mice of the Balb/C line", "details": "for Total cellularity of the BAL: animals 6-8 weeks, mean±SD; for Eosinophils, % of BAL cells / Lymphocytes, % of BAL cells / Monocytes/Macrophages, % of BAL cells / Neutrophils, % of BAL cells: animals 6 to 8 weeks; for Eosinophils in BAL, thousand / Lymphocytes in BAL, thousand / Monocytes/Macrophages in BAL, thousand / Neutrophils in BAL, thousand / Total number of cells in the lavages: animals 18 to 20 weeks", "source_text": "Female, non-pathogenic mice of the Balb/C line (“Pushchtino” laboratory animal breeders) were kept under conditions of an SPF-vivarium at a constant temperature, 12-hour day/night cycle, and received sterile feed and water ad libitum. In two series of experiments, mice from 6-8 weeks and 18-20 weeks of age were used at the beginning of the experiment, respectively.\nThe animals were immunized twice at 5-day intervals with an ovalbumin solution (Sigma) in an adjuvant based on ammonium sulfate at a dosage of 8 μg per mouse. SCV-07 was administered intra-abdominally in a volume of 200 μL at a dosage of 0.1 or 1.0 μg/kg in PBS once a day from 6 through 11 days after the first immunization. The control group received physiological saline on the same days. Each group comprised 6 to 10 animals. On the 12th, 16th and 20th days after the first immunization, the animals were then placed in a hermetic box, in which an aerosol of 1% ovalbumin solution (OvA) in PBS was generated with an ultrasonic nebulizer LD-207U (Little Doctor) for 1 minute with continuous mixing of air. The duration of exposure of the animals to the aerosol was 15 minutes. Analysis of the severity of experimental allergic asthma was carried out 24 hours after the last aerosol exposure.\nThe mice were killed by intra-abdominal administration of a lethal dose of sodium barbital. Bronchoalveolar lavage (BAL) was obtained by washing the lungs through the trachea with 1 mL PBS solution. The BAL cells were precipitated by centrifuging, the precipitate was resuspended, the cell concentration was counted in a Goryaev chamber, and smears were prepared. The smears were dried, fixed and stained with Romanovskii dye. The cytological composition of the bronchoalveolar lavage was investigated under a light microscope with oil immersion (eyepiece×16, objective×100). The numbers of monocyte/macrophages, neutrophils, eosinophils and lymphocytes per 200 cells were counted, in which no less than 5 visual fields were viewed. The relative number of cells of each cell population was expressed as the percentage of the total number of cells.\nThe statistical processing of the results was carried out with the Microsoft Excel and SPSS programs for Windows v.13. The normality of the distribution was determined with the Kholmogorov-Smimov criterion. To evaluate the significance of the differences between groups for normally distributed values, we used the two-sided Student test with unequal deviations, for non-normally distributed differences—the Mann-Whitney test. The differences were considered significant at p<0.05. Unless otherwise stated, the data are presented in the form of means±standard deviation."}, "OVA specific IgG1": {"tested_on": "OVA specific IgG1", "assay": "OVA specific IgG1 in serum by ELISA, guinea pig model", "format": "in vivo, Dunkin-Hartley guinea pigs", "details": "1 or 10 ug/kg ip days 17-21", "experimental": "Animals were sensitized on day 0 ip with 50 mg/kg OVA. On Days 17, 18, 19, and 20, animals received an ip injection between 8 and 10 am with PBS, SCV-07 at 1 ug/kg, or SCV-07 at 10 ug/kg (Peptide treatment). Between 8 and 10 a.m. on Day 21, animals were administered peptide 2 hours before OVA or saline (NSS) aerosol challenge. 30 min before OVA or NSS aerosol challenge each animal was injected ip with an antihistamine (6.1 mg/kg pyrilamine maleate) to prevent death due to the anaphylactic response that accompanies aerosol OVA challenge. Animals were exposed to aerosol in pairs with either 1% OVA solution or NSS for 5 min in a plexiglass chamber (22×22×29 cm) using a DeVilbiss Model 35B Ultrasonic Nebulizer. Animals were observed during the total 5 min aerosolization and comments recorded. Within 22-24 hours after challenge, animals were euthanized, bled by cardiac puncture, lavaged and lung lobes removed for measurement of cellular infiltration. At the time of OVA or NSS challenge and euthanasia, animal weights ranged from approximately 350-550 g, with the average weight approximately 420 g. […]\nOVA specific IgG1 in serum was determined by ELISA as previously described (Fraser et al., 1998; Regal et al., 2000). The data were expressed as the concentration of OVA specific IgG1 in the sample divided by the concentration of OVA specific IgG1 in the standard, defined as 1. […]"}}}
{"compound": "N[C@H](CCC(=O)N[C@@H](Cc1c[nH]c2ccccc12)C(=O)O)C(=O)O", "note": "[SCV-07, γ-D-glutamyl-L-tryptophan]", "values": [{"measurement": "Change in ConA-induced production of IL-4 by the splenocytes", "setting": "interleukin-4", "value": "two-fold reduction"}, {"measurement": "Total cellularity of the BAL", "setting": "[1]; SCV-07 0.1 μg/kg intra-abdominally", "value": "1.96±0.99", "unit": "million"}, {"measurement": "Total cellularity of the BAL", "setting": "[1]; SCV-07 1 μg/kg", "value": "2.21±1.16", "unit": "million"}, {"measurement": "Eosinophils, % of BAL cells", "setting": "[1]; 0.1 μg/kg", "value": "57.4 ± 21.3", "unit": "%"}, {"measurement": "Lymphocytes, % of BAL cells", "setting": "[1]; 0.1 μg/kg", "value": "0.4 ± 0.5", "unit": "%"}, {"measurement": "Monocytes/Macrophages, % of BAL cells", "setting": "[1]; 0.1 μg/kg", "value": "41.2 ± 20.7", "unit": "%"}, {"measurement": "Neutrophils, % of BAL cells", "setting": "[1]; 0.1 μg/kg", "value": "0.9 ± 0.8", "unit": "%"}, {"measurement": "Eosinophils, % of BAL cells", "setting": "[1]; 1 μg/kg", "value": "56.7 ± 9.5", "unit": "%"}, {"measurement": "Lymphocytes, % of BAL cells", "setting": "[1]; 1 μg/kg", "value": "0.6 ± 0.7", "unit": "%"}, {"measurement": "Monocytes/Macrophages, % of BAL cells", "setting": "[1]; 1 μg/kg", "value": "40.6 ± 9.4", "unit": "%"}, {"measurement": "Neutrophils, % of BAL cells", "setting": "[1]; 1 μg/kg", "value": "2.1 ± 0.9", "unit": "%"}, {"measurement": "Eosinophils in BAL, thousand", "setting": "[1]; 0.1 μg/kg", "value": "456 ± 144", "unit": "thousand"}, {"measurement": "Lymphocytes in BAL, thousand", "setting": "[1]; 0.1 μg/kg", "value": "22 ± 11", "unit": "thousand"}, {"measurement": "Monocytes/Macrophages in BAL, thousand", "setting": "[1]; 0.1 μg/kg", "value": "629 ± 134", "unit": "thousand"}, {"measurement": "Neutrophils in BAL, thousand", "setting": "[1]; 0.1 μg/kg", "value": "17 ± 14", "unit": "thousand"}, {"measurement": "Total number of cells in the lavages", "setting": "[1]; 0.1 μg/kg, p<0.05 vs control", "value": "1.12±0.15", "unit": "million"}, {"measurement": "Eosinophils in BAL, thousand", "setting": "[1]; 1 μg/kg", "value": "690 ± 247", "unit": "thousand"}, {"measurement": "Lymphocytes in BAL, thousand", "setting": "[1]; 1 μg/kg", "value": "26 ± 9", "unit": "thousand"}, {"measurement": "Monocytes/Macrophages in BAL, thousand", "setting": "[1]; 1 μg/kg", "value": "586 ± 144", "unit": "thousand"}, {"measurement": "Neutrophils in BAL, thousand", "setting": "[1]; 1 μg/kg", "value": "18 ± 10", "unit": "thousand"}, {"measurement": "Total number of cells in the lavages", "setting": "[1]; 1 μg/kg", "value": "1.32±0.23", "unit": "million"}, {"measurement": "Concentration of OVA specific IgG1 antibody in the serum", "setting": "OVA specific IgG1", "value": "did not significantly affect"}]}
